# Laboratory results from patent US5254554A, “3-hydroxy-substituted-1-phenyl-1,4-dihydro-4-oxopyridazines and derivatives, and use” (Pierre Fabre Medicament, priority 1991, dated 1993).
# Columns and labels:
# [1] = Anxiolytic activity, Vogel test; type: in vivo; conditions: 30 mg/kg per os
# Protocol: (§1) Results obtained on the products of the present invention are presented in the following and are expressed in percentage of increase by reference to an untreated control, with the product being administered per os at a dose of 30 mg/kg.
# [2] = Anxiolytic activity, X-labyrinth test (elevated plus maze); type: in vivo; conditions: 30 mg/kg per os
# Protocol: as §1
# Lipoxygenase = target: T1, Lipoxygenase (Rattus norvegicus, UniProt P12527); experiment: Inhibition of Lipoxygenase: inhibition of leukotriene B4 production by polymorphonuclear cells stimulated by Ionophore A 23 187; type: cell-based; conditions: polymorphonuclear peritoneal cell suspensions
# T1 construct: suspensions of polymorphonuclear peritonea of rates stimulated by means of the Ionophore A 23 187; endogenous in cells; host or cells: rat peritoneal polymorphonuclear cells
# T1 sequence (P12527 1-673): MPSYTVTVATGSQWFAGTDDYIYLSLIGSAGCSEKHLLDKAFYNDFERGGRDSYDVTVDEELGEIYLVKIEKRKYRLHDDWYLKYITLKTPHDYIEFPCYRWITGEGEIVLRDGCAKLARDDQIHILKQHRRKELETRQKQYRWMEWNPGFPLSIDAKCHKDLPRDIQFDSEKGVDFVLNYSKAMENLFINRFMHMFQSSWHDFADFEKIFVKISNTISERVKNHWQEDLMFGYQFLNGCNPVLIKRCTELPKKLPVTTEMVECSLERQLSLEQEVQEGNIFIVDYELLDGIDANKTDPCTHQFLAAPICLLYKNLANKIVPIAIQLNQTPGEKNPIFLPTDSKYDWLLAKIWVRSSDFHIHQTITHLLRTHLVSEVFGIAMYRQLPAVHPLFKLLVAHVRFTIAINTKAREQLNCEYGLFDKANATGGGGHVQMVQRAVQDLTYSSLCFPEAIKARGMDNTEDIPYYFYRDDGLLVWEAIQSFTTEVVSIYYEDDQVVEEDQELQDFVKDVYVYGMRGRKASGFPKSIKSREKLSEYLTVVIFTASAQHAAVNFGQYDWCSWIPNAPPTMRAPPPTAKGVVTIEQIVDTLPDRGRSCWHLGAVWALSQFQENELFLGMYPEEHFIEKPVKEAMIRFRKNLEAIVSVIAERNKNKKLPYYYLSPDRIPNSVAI
SMILES,Vogel test: percentage of increase by reference to an untreated control [1],X-labyrinth test: percentage of increase by reference to an untreated control [2],IC50 (Lipoxygenase)
"Cc1cc(=O)c(OCc2ccccc2)nn1-c1cccc(C(F)(F)F)c1 [Compound 6, 1-Metatrifluoromethylphenyl-1,4-dihydro-3-benzyloxy-4-oxo-6-methylpyridazine]",98%,18%,1250 nM
"COc1nn(-c2cccc(C(F)(F)F)c2)ccc1=O [Compound 9, 1-Metatrifluoromethylphenyl-1,4-dihydro-3-methoxy-4-oxopyridazine]",52%,165%,
"COc1nn(-c2cccc(C(F)(F)F)c2)c(C)cc1=O [Compound 2, 1-Metatrifluoromethylphenyl-1,4-dihydro-3-methoxy-4-oxo-6-methylpyridazine]",95%,95%,
"Cc1cc(=O)c(OCc2ccc3ccccc3n2)nn1-c1cccc(C(F)(F)F)c1 [Compound 11, 1-Metatrifluoromethylphenyl-1,4-dihydro-3-(2-quinolylmethoxy)-4-oxo-6-methylpyridazine]",,,1100 nM
"O=c1ccn(-c2cccc(C(F)(F)F)c2)nc1OCc1ccccc1 [Compound 10, 1-Metatrifluoromethylphenyl-1,4-dihydro-3-benzyloxy-4-oxopyridazine]",38%,,25000 nM
"C=CCOc1nn(-c2cccc(C(F)(F)F)c2)c(C)cc1=O [Compound 5, 1-Metatrifluoromethylphenyl-1,4-dihydro-3-allyloxy-4-oxo-6-methylpyridazine]",48%,,
